{"source": "patent US4348401A", "about": "“N-Phenoxyalkylpiperidine derivatives” (Boehringer Mannheim GmbH, priority 1979, dated 1982)", "test_system": "bronchospasm", "assay": "inhibition of antigen-induced bronchospasm (Br Sp), passively sensitized guinea pigs, Konzett and Rossler method as modified by Collier", "type": "in vivo, guinea pig", "details": "5 minutes before antigen, 3 minutes after antigen, vs control group", "procedure": "In animals narcotized with 40 mg. sodium pentobarbital/kg. body weight, a Y cannula is introduced into the trachea and a venous cannula is introduced in the jugular vein. A cannula introduced in the carotid artery leads to a measurement chamber (Statham, P 23 Db), with which the arterial pressure is recorded via a direct-current voltage potential measuring bridge. Using a respiratory pump, rats are given an air volume, depending upon the size of the animal, of 1 to 2 ml. 64 times and guinea pigs of 7 to 15 ml. 72 times per minute. […] Upon the appearance of a bronchospasm, initiated by the intravenous administration of the antigen, in the case of the respiratory volume remaining the same, all of the supplied volume of air can no longer flow into the lungs and part of it flows off through a side arm via a valve. The method developed by the firm Basile differs from the method originally described by Konzett and Rossler in that this air volume is measured indirectly via the rate of flow with the help of a thermoelement. The strength of a bronchospasm can then be recorded as a percentage reduction of the available bronchial volume. The theoretically maximum possible bronchospasm is obtained by closing the respiration tube on the animal so that all of the air supplied flows off through the valve.\nEvery 30 seconds, the valve is closed for 8 seconds by a relay and the total volume is pumped into the lungs in order again to expand the bronchi and alveoli and thus to make possible a sufficient gas exchange. The percentage decrease of the available bronchial volume (X) is calculated according to the following equation: [formula] wherein a is the amplitude of the recorder in mm. at the commencement of the experiment, b is the height of the amplitude in mm. at a definite point of time and m is the maximum amplitude in mm. after closing the respiration tube on the animal.\nThe antigen is 2×crystallized ovalbumin. Equal amounts of a solution of the antigen in physiological sodium chloride solution and complete Freund's adjuvant are emulsified and injected intramuscularly in an amount of 2×0.15 ml. to male guinea pigs. The animals are bled and the pooled serum is stored at -20° C.\nThe compounds according to the present invention are administered intravenously 5 minutes before administration of the antigen."}
{"smiles": "COC(=O)c1ccccc1OCCCN1CCC(NC(=O)c2ccccc2)CC1", "note": "[Example 2a, methyl 2-[3-(4-benzamidopiperidino)-propoxy]-benzoate]", "values": [{"measurement": "% inhibition Br Sp", "setting": "dosage 3.0 mg/kg i.v.", "result": 71, "unit": "%"}]}
{"smiles": "O=C(NC1CCN(CCCOc2ccccc2-c2nnn[nH]2)CC1)c1ccccc1", "note": "[Example 9, 5-{2-[3-(4-Benzamidopiperidino)-propoxy]-phenyl}-1H-tetrazole]", "values": [{"measurement": "% inhibition Br Sp", "setting": "dosage 0.1 mg/kg i.v.", "result": 56, "unit": "%"}]}
{"smiles": "Cn1c(=O)c2[nH]cnc2n(C)c1=O", "note": "[aminophylline, reference compound]", "values": [{"measurement": "% inhibition Br Sp", "setting": "dosage 24 mg/kg i.v.", "result": 29, "unit": "%"}]}
{"smiles": "O=C(NC1CCN(CCCOc2ccccc2C(=O)O)CC1)c1ccccc1", "note": "[Example 7, 2-[3-(4-Benzamidopiperidino)-propoxy]-benzoic acid]", "values": [{"measurement": "% inhibition Br Sp", "setting": "dosage 1.5 mg/kg i.v.", "result": 45, "unit": "%"}]}
{"smiles": "Cc1ccccc1C(=O)NC1CCN(CCCOc2ccccc2-c2nnn[nH]2)CC1", "note": "[Example 10g, 5-{2-{3-[4-(2-methylbenzamido)-piperidino]-propoxy}-phenyl}-1H-tetrazole]", "values": [{"measurement": "% inhibition Br Sp", "setting": "dosage 0.75 mg/kg i.v.", "result": 71, "unit": "%"}]}
{"smiles": "NC(=O)c1ccccc1OCCCN1CCC(NC(=O)c2ccccc2)CC1", "note": "[Example 2b, 2-[3-(4-benzamidopiperidino)-propoxy]-benzamide]", "values": [{"measurement": "% inhibition Br Sp", "setting": "dosage 0.38 mg/kg i.v.", "result": 67, "unit": "%"}]}
